Results on two compounds are retold here after patent US8951977B2, “Amorphous roxithromycin composition” (North-West University, priority 2011, dated 2015).

≈ marks a conversion by molar mass, not a printed value.

Data set [1] can be described thus: Solubility of roxithromycin forms in buffer media and water, excess solid, 37 degrees Celsius, 24 h, HPLC assay. The class given is physicochemical. The note with it: for solubility at 24 h: 37 °C, thermodynamic from solid, 37 degrees Celsius. The procedure: In further analysis of the novel Form-III, each of five replicate test tubes were filled with an excess of the amorphous form (Form-III) of roxithromycin and 10 ml of solubility medium. The process was performed with each of the following mediums: acetate buffer (pH 4.5), phosphate buffer (pH 6.8), distilled water and 0.1 M HCl. The phosphate buffer comprises potassium dihydrogen phosphate, disodium hydrogen phosphate and water. The acetate buffer comprises ammonium acetate, glacial acetic acid and water. This method was also used for testing the prior art anhydrous roxithromycin.
The test tubes were fixed to a rotating axis (54 rpm) and submerged in a water bath at 37 degrees Celsius±2 degrees Celsius for twenty-four hours. The contents of the test tubes were filtered through a 0.45 μm filter and subsequently the respective filtrates were diluted.
The concentrations of the four filtrates of amorphous form (Form-III) of roxithromycin and roxithromycin raw material were respectively determined by HPLC (high performance liquid chromatography) assay. The HPLC assay was performed utilising a mobile phase of 30 g/L ammonium dihydrogen phosphate buffer at pH 5.3. The pH was adjusted with sodium hydroxide solution. The mobile phase comprised of buffer (600) and acetonitrile (400). A Luna C18 150 mm×4.6 mm column was used with a flow rate of 1.0 ml/min and a wavelength of 205 nm. Validation of this method provided a linear regression, R^2, of 0.9998.

Data set [2] can be described thus: Stability trial at increased temperature and 75% relative humidity for 4 weeks (TGA, XRPD, IR). The class given is physicochemical. On the procedure:
During further stability analysis, samples of both the raw material and amorphous form (Form-III) of roxithromycin were kept at 25 degrees Celsius and 75% relative humidity (RH) (FIG. 7); 30 degrees Celsius and 75% relative humidity (FIG. 8); and 40 degrees Celsius and 75% relative humidity, for a period of 4 weeks. The samples were analysed by thermogravimetric analysis (TGA) and percentage weight loss/gain was determined.
It is evident from FIGS. 7 and 8 that after week 4 of a stability trial an amount of approximately 2.5% moisture is absorbed by the samples. The TGA results obtained for the samples stored at 40° C./75% RH (FIG. 9) did however not show the same extent of moisture absorption as that obtained with the samples of FIGS. 7 and 8. […] No moisture-induced recrystallisations of the amorphous form were observed. […] The amorphous form (Form-III) could therefore be regarded as stable against increased temperatures and humidity.
The IR data illustrates that the absorbed moisture was not structurally absorbed within the molecule, but only absorbed on the surface of the structure. This is confirmed by the peak between wavenumbers 3580 to 3464 cm^−1 that represents the —OH bands of roxithromycin raw material and the lack of peaks in the amorphous form (Form-III) of roxithromycin. […]

Consider `CC[C@H]1OC(=O)[C@H](C)[C@@H](O[C@H]2C[C@@](C)(OC)[C@@H](O)[C@H](C)O2)[C@H](C)[C@@H](O[C@@H]2O[C@H](C)C[C@H](N(C)C)[C@H]2O)[C@](C)(O)C[C@@H](C)/C(=N\OCOCCOC)[C@H](C)[C@@H](O)[C@]1(C)O` [roxithromycin, 3R, 4S, 5S, 6R, 7R, 9R, 11S, 12R, 13S, 14R-6-[(2S,3R,4S,6R)-4-dimethylamino-3-hydroxy-6-methyloxan-2-yl]oxy-14-ethyl-7,12,13-trihydroxy-4-[(2R,4R,5S,6S)-5-hydroxy-4-methoxy-4,6-dimethyloxan-2-yl]oxy-10-(2-methoxyethoxymethoxyimino)-3,5,7,9,11,13-hexamethyl-1-oxacyclotetradecan-2-one], for which the “stability in 0.1 M HCl” value in data set [1] (0.1 M HCl solubility medium, results omitted for both forms) was “rapid degradation”.
As to `CC[C@H]1OC(=O)[C@H](C)[C@@H](O[C@H]2C[C@@](C)(OC)[C@@H](O)[C@H](C)O2)[C@H](C)[C@@H](O[C@@H]2O[C@H](C)C[C@H](N(C)C)[C@H]2O)[C@](C)(O)C[C@@H](C)/C(=N\OCOCCOC)[C@H](C)[C@@H](O)[C@]1(C)O` [Form-III, roxithromycin], the “solid-state stability of the amorphous form” value in data set [2] (25, 30 and 40 degrees Celsius, 75% RH, 4 weeks) is “stable over a period of 4 weeks and did not recrystallise to a crystalline form”. Further, the “recrystallisation (XRPD)” value in data set [2] (storage four weeks at 40 degrees Celsius and 75% relative humidity) was “no recrystallisation”. The solubility at 24 h stood at 1150 ± 6.5 µg/mL (≈ 1370 µM) in data set [1] (aqueous buffer, acetate buffer (pH 4.5)); 208 ± 3.7 µg/mL (≈ 249 µM) in data set [1] (aqueous buffer, phosphate buffer (pH 6.8)); 8.6 ± 1.8 µg/mL (≈ 10.3 µM) in data set [1] (distilled water).

One may read the solubility as how much of the substance goes into solution per volume. A high value points to a readily soluble substance.
